This note sets out measurements from patent US20250257071A9, “TRICYCLIC COMPOUND, METHOD FOR PREPARING SAME, AND USE THEREOF” (Sichuan Kelun-Biotech Biopharmaceutical Co., Ltd., priority 2021, published 2025).

In this assay the target is human TLR7 (Homo sapiens (Human), UniProt Q9NYK1). The experiment in a line: Agonistic activity of compounds on HEK-Blue hTLR7 cells (QUANTI-Blue reporter, OD620). As to conditions: for Emax (OD620): OD620 at maximum activation effect. The class given is cell-based. The protocol:
• 1. HEK-Blue hTLR7 cells (Invivogen) were cultured in DMEM medium (Hyclone) containing 10% FBS heat-inactivated fetal bovine serum (Corning). On the day of detection, the cell state was observed under a microscope, the cells were collected and resuspended, and the cell concentration was adjusted after counting, 50 μL per well, the total amount of cells was 2×10^4, and the cells were inoculated in a 96-well plate. • 2. After the cells adhered to the wall overnight, 50 μL of the test compound at different concentrations was added into the well plate, so that the final concentrations were 100 μM, 33.3 μM, 11.11 μM, 3.70 μM, 1.23 μM, 0.41 μM, 0.14 μM, 0.05 μM, 0 μM, and the final concentration of DMSO was 1%. The compound was incubated with the cells in a 37° C., 5% CO2 incubator for 20 h. • 3. After the incubation, observation under microscope was performed to determine the maximum signal well, the states of the cells with the highest and lowest concentrations of the compound, and whether the compound will crystalize at high concentration. 10 μL of cell culture supermatant was taken and transferred to a new 96-well transparent plate, 90 μL of QUANTI-Blue (Invivogen) detection reagent was added to each well, and incubated at 37° C. for 3 h, and OD620 was read with a multifunctional microplate reader (BMG LABTECH). • 4. EC50 was calculated by fitting with Graphpad Prism software log(agonist) vs. response—Variable slope, and Emax was the (D620 at which the activation effect of the test compound reached the maximum.

Sequence of human TLR7 (Q9NYK1 27-1049): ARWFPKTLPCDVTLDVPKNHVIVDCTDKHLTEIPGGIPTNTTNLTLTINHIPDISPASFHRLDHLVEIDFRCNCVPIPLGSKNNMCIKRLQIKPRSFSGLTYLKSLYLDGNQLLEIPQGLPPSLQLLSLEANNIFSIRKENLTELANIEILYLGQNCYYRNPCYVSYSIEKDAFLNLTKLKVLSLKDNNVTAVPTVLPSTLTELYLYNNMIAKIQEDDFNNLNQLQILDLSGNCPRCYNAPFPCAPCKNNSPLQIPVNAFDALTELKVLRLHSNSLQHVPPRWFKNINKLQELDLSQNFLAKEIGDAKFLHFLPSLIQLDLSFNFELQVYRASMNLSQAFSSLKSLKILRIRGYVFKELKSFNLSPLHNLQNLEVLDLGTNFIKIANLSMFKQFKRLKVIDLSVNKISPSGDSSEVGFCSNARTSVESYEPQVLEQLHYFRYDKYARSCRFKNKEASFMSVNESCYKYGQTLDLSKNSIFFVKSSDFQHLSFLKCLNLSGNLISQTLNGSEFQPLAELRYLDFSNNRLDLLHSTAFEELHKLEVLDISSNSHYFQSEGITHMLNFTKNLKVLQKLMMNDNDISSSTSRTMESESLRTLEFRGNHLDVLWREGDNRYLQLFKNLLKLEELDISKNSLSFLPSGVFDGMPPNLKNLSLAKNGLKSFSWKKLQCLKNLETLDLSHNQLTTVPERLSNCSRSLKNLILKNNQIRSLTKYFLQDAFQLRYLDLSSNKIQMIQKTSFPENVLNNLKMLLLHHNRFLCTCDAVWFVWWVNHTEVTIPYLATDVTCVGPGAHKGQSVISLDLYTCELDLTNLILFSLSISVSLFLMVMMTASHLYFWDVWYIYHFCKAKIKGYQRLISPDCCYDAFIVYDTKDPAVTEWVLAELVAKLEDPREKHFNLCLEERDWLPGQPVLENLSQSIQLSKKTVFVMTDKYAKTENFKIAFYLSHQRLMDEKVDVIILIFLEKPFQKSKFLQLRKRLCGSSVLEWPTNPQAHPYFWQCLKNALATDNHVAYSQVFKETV

For `CCCCc1nc2c(N)nc3cc(C)sc3c2n1CC1CCN(C(=O)CCOCCOCCN)CC1` [Compound 17, 1-(4-((4-amino-2-butyl-7-methyl-1H-imidazo[4,5-d]thieno[3,2-b]pyridin-1-yl)methyl)piperidin-1-yl)-3-(2-(2-aminoethoxy)ethoxy)propan-1-one], the “activation effect on human TLR7 (in words)” value (shortened to “activation effect”) is given as “strong activation effect” and the “Emax (OD620)” value was found to be 2.23 OD620.

Take `CCCCc1nc2c(N)nc3cc(C)sc3c2n1CC1CCN(C)CC1` [Compound 28, 2-butyl-7-methyl-1-((1-methylpiperidin-4-yl)methyl)-1H-imidazo[4,5-d]thieno[3,2-b]pyridine-4-amine]: the “activation effect” value is given as “strong activation effect” and the “Emax (OD620)” value came out at 1.39 OD620.

Turning to `CCCCc1nc2c(N)nc3cc(C4CCN(C)CC4)sc3c2n1C` [Compound 32, 2-butyl-1-methyl-7-(1-methylpiperidin-4-yl)-1H-imidazo[4,5-d]thieno[3,2-b]pyridine-4-amine], the “activation effect” value is reported as “strong activation effect” and the “Emax (OD620)” value turned out to be 0.91 OD620.

In the case of `COCCc1nc2c(N)nc3ccsc3c2n1CCCCN` [Compound 4, 1-(4-aminobutyl)-2-(2-methoxyethyl)-1H-imidazo[4,5-d]thieno[3,2-b]pyridine-4-amine], the “activation effect” value was “strong activation effect” and the “Emax (OD620)” value came out at 1.74 OD620.

Take `CCCCc1nc2c(N)nc3cc(C4CCN(C)CC4)sc3c2n1CC1CCOCC1` [Compound 34, 2-butyl-7-(1-methylpiperidin-4-yl)-1-((tetrahydro-2H-pyran-4-yl)methyl)-1H-imidazo[4,5-d]thieno[3,2-b]pyridine-4-amine]: the “activation effect” value is listed as “strong activation effect” and the “Emax (OD620)” value is on record as 1.21 OD620.

As for `CCOCc1nc2c(N)nc3ccsc3c2n1CCCCN` [Compound 5, 1-(4-aminobutyl)-2-(2-ethoxymethyl)-1H-imidazo[4,5-d]thieno[3,2-b]pyridine-4-amine], the “activation effect” value was “strong activation effect” and the “Emax (OD620)” value is on record as 1.46 OD620.

Regarding `COCCc1nc2c(N)nc3ccsc3c2n1CC1CCN(C)CC1` [Compound 56, 2-(2-methoxyethyl)-1-[(1-methylhexahydropyridin-4-yl)methyl]thieno[3,2-b]imidazo[4,5-d]pyridine-4-amine], the “activation effect” value is on record as “strong activation effect” and the “Emax (OD620)” value was found to be 1.41 OD620.

As for `CCCCc1nc2c(N)nc3cc(C)sc3c2n1CC1CCOCC1` [Compound 26, 2-butyl-7-methyl-1-((tetrahydro-2H-pyran-4-yl)methyl)-1H-imidazo[4,5-d]thieno[3,2-b]pyridine-4-amine], the “activation effect” value is “strong activation effect” and the “Emax (OD620)” value came out at 1.78 OD620.

Consider `CCCCc1nc2c(N)nc3cc(C4CCOCC4)sc3c2n1CC1CCN(C)CC1` [Compound 40, 2-butyl-1-((1-methylpiperidin-4-yl)methyl)-7-(tetrahydro-2H-pyran-4-yl)-1H-imidazo[4,5-d]thieno[3,2-b]pyridine-4-amine], for which the “activation effect” value was “strong activation effect” and the “Emax (OD620)” value was found to be 1.83 OD620.

As to `CCCCc1nc2c(N)nc3cc(C)sc3c2n1CC1CCN(CCOCCOCCN)CC1` [Compound 15, 1-((1-(2-(2-(2-aminoethoxy)ethoxy)ethyl)piperidin-4-yl)methyl)-2-butyl-7-methyl-1H-imidazo[4,5-d]thieno[3,2-b]pyridine-4-amine], the “activation effect” value is on record as “strong activation effect” and the “Emax (OD620)” value is recorded as 2.40 OD620.

As to `CCCCc1nc2c(N)nc3cc(C4CCN(C)CC4)sc3c2n1CC1CCN(C)CC1` [Compound 38, 2-butyl-7-(1-methylpiperidin-4-yl)-1-((1-methylpiperidin-4-yl)methyl)-1H-imidazo[4,5-d]thieno[3,2-b]pyridine-4-amine], the “activation effect” value is “strong activation effect” and the “Emax (OD620)” value was found to be 0.49 OD620.

As to `CCCCc1nc2c(N)nc3cc(C4CCN(C)CC4)sc3c2n1CC1CCN(CCOC)CC1` [Compound 42, 2-butyl-1-{[1-(2-methoxyethyl)hexahydropyridin-4-yl]methyl}-7-(1-methylhexahydropyridin-4-yl)thieno[3,2-b]imidazo[4,5-d]pyridine-4-amine], the “activation effect” value is reported as “strong activation effect” and the “Emax (OD620)” value is given as 0.65 OD620.

On to `COCCc1nc2c(N)nc3ccsc3c2n1CC1CCNCC1` [Compound 55, 1-(hexahydropyridin-4-ylmethyl)-2-(2-methoxyethyl) thieno[3,2-b]imidazo[4,5-d]pyridine-4-amine], for which the “activation effect” value is listed as “strong activation effect” and the “Emax (OD620)” value was 1.44 OD620.

Take `CCCCc1nc2c(N)nc3ccsc3c2n1CC1CCNCC1` [Compound 25, 2-butyl-1-(piperidin-4-ylmethyl)-1H-imidazo[4,5-d]thieno[3,2-b]pyridine-4-amine]: the “activation effect” value is given as “strong activation effect” and the “Emax (OD620)” value turned out to be 2.08 OD620.

Regarding `CCCCc1nc2c(N)nc3cc(C)sc3c2n1CC1CCN(CCOCCOCCOCCOCCOCCOCCOC)CC1` [Compound 16, 1-((1-(2,5,8,11,14,17,20-heptaoxadocosan-22-yl)piperidin-4-yl)methyl)-2-butyl-7-methyl-1H-imidazo[4,5-d]thieno[3,2-b]pyridine-4-amine], the “activation effect” value is reported as “strong activation effect” and the “Emax (OD620)” value was 2.18 OD620.

As to `CCCCc1nc2c(N)nc3cc(C4CCNCC4)sc3c2n1CC1CCN(CCOC)CC1` [Compound 41, 2-butyl-7-(hexahydropyridin-4-yl)-1-{[1-(2-methoxyethyl)hexahydropyridin-4-yl]methyl}thieno[3,2-b]imidazo[4,5-d]pyridine-4-amine], the “activation effect” value is reported as “strong activation effect” and the “Emax (OD620)” value is 0.84 OD620.

For the molecule `CCCCc1nc2c(N)nc3cc(C4=CCN(C)CC4)sc3c2[nH]1` [Compound 8, 2-butyl-7-(1-methyl-1,2,3,6-tetrahydropyridin-4-yl)-1H-imidazo[4,5-d]thieno[3,2-b]pyridine-4-amine], the “activation effect” value is “strong activation effect” and the “Emax (OD620)” value is on record as 0.56 OD620.
